Test results from paper PMC8119212 (JCI Insight, 2021).
Entries after “also recorded” stand apart in the source; their conditions may differ. Blank lines part the entries; values can stand above or below the compound they belong to.

Columns and labels:
[1] = target: ALK2 (WT) GS and kinase domain (Homo sapiens, UniProt Q04771); experiment: DSF thermal shift, wild-type ALK2; type: binding
[2] = test system: ACVR1^Q207D-transgenic mouse (CAG-Z-eGFP-caALK2-Tg); experiment: ACVR1^Q207D-Tg mouse model of heterotopic ossification; conditions: for mobility (passive range of motion): 6 mg/kg intraperitoneally twice daily, not shown
From the text: In these animals, activation of the ACVR1^Q207D transgene and associated GFP reporter is mediated by a single intramuscular injection of Adenovirus expressing Cre recombinase (Ad.Cre) in the left hindlimb on P7. This induces the expression of the human ACVR1^Q207D transgene, as well as muscle necrosis and inflammation, which together result in the formation of heterotopic bone lesions within 7–10 days following Ad.Cre injection ([16]). This model is believed to recapitulate aspects of clinical HO and FOP, in which muscle injury and inflammation potentiate the formation of heterotopic bone in soft tissues.
(D) Representative hindlimb scoring system. All range of motion scoring was performed by 2 separate operators who were blinded to the treatment condition of the animal.
Mice were maintained in accordance with IACUC guidelines under approved experimental protocols. Cre-inducible ACVR1^Q207D (CAG-Z-eGFP-caACVR1-Tg) transgenic mice were a gift from Yuji Michina (University of Michigan, Ann Arbor, Michigan, USA) as previously described ([31]). Acvr1^[R206H]FlEx/+ mice were generated as previously described ([13]). Heterotopic bone formation in these mice was introduced via single retro-popliteal injection of adenoviral Cre-recombinase at 1 × 10^8 PFU at P7. […] Bone formation as a function of a loss of passive range of motion, via dorsiflexion of the left ankle joint was assessed daily. Scores were assessed by 2 independent observers blinded to genotype and treatment. […] To monitor the progression of HO during the in vivo studies, x-ray radiographs were also imaged at various time points. Mice were anesthetized using ketamine at 100 mg/kg and imaged nonterminally in the prone position with tibial lateralization and hip abduction, allowing for reproducible positioning. Radiographs were obtained using 30-second scans and 50 kV exposures (MS FX In Vivo Pro: Carestream Imaging). […] After reconstruction, regions of interest were chosen and exported into DICOM format, and analyzed by Osirix analysis software. Fixed soft tissues and bone were stained with alizarin red and Alcian blue as previously described ([62]).

HCK = HCK (Homo sapiens, UniProt P08631); experiment: Caliper kinase profiling (Nanosyn), HCK; type: biochemical
Chain of HCK (P08631 whole entry): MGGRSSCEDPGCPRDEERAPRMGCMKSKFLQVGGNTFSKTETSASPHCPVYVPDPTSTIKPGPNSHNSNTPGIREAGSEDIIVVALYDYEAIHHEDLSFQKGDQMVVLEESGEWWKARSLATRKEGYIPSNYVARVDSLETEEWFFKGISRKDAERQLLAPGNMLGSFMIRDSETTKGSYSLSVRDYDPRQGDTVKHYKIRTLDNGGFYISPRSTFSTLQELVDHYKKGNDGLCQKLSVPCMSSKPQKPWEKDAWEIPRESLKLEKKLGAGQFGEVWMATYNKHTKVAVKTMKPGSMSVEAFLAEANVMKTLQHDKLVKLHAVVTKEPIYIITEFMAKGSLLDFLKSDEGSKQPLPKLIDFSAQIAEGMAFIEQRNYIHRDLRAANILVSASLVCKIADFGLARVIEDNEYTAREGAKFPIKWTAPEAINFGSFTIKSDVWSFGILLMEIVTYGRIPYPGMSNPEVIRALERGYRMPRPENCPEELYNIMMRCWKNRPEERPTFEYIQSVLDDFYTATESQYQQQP

ARG (ABL2) = ARG (ABL2) (Homo sapiens, UniProt P42684); experiment: Caliper kinase profiling (Nanosyn), ARG; type: biochemical
Chain of ARG (ABL2) (P42684 whole entry): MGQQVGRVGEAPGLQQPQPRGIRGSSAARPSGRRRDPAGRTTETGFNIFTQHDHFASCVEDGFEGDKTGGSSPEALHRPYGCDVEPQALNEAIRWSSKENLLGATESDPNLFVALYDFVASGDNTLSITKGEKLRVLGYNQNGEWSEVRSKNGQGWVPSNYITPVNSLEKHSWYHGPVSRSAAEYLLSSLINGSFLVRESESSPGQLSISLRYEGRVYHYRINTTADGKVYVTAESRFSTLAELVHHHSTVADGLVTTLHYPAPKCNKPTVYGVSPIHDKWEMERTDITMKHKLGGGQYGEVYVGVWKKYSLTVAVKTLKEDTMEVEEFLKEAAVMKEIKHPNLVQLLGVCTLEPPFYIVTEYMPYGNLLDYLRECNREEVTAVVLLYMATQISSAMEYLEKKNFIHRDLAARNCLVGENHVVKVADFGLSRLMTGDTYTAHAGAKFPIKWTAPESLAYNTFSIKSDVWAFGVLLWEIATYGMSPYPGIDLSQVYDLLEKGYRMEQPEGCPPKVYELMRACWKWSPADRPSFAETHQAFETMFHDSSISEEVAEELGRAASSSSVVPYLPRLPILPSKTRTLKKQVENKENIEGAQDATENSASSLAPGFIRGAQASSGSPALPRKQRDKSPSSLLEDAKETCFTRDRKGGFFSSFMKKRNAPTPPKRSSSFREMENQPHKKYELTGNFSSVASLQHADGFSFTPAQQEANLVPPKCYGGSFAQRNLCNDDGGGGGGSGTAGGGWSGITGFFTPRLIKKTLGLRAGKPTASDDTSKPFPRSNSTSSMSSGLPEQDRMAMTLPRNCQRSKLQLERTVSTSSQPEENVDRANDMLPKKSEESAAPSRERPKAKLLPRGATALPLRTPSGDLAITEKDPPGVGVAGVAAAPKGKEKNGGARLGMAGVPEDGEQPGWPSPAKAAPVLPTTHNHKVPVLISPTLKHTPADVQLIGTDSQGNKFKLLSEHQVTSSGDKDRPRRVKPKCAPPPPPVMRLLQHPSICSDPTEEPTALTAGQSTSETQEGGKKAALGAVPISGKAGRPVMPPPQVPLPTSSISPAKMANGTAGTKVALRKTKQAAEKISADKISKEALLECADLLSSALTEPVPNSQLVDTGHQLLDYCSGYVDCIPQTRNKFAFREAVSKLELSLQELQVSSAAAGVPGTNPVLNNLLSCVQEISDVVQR

zebrafish embryos = experiment: Zebrafish embryo dorsalization; type: in vivo; conditions: incubation starting at 0.5 hours after fertilization
Method: Dorsoventral axis specification during embryogenesis is regulated by the activity of BMP signaling agonists and antagonists ([30]).
Zebrafish embryos were treated with varying inhibitor concentrations from less than or equal to 0.5 hours after fertilization. Inhibitor stocks (20 mM) were diluted in fish water from DMSO. Embryos were scored according to Mullins et al. ([61]).

[3] = target: T1, recombinant ALK4 kinase domain (Homo sapiens, UniProt P36896); experiment: LANCE Ultra TR-FRET kinase assay, ALK4; type: biochemical; conditions: 10 nM kinase, 50 μM peptide substrate, 10 μM ATP
T1 construct: purified recombinant ALK1-6 kinase domains; purchased Carna Bioscience 09-134
T1 sequence (P36896 207-497 limits assumed): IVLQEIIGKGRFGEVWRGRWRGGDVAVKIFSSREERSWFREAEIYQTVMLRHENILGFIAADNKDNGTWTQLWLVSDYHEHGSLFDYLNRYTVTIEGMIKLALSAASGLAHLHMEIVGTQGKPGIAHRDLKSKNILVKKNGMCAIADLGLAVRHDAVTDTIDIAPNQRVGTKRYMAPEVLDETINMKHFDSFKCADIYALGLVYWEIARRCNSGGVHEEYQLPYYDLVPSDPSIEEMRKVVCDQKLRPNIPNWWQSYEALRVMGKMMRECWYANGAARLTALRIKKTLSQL

TGF-β signaling = experiment: cells; conditions: Homo sapiens, MDA-MB-231
TNIK = TNIK (Homo sapiens, UniProt Q9UKE5); experiment: Caliper kinase profiling (Nanosyn), TNIK; type: biochemical
activin A signaling = experiment: cells; conditions: Homo sapiens, MDA-MB-231
Method: (§1) Reactions contained 10 nM kinase, 50 μM peptide substrate, and 10 μM ATP. Data shown are plotted as mean ± SD. (n = 3 independent replicates). […] Data shown are representative of more than 3 independent experiments, with data plotted as mean ±SEM. (n = 3 replicates). […] Data shown are plotted as mean ± SD. (n ≥ 3 independent replicates).
(§2) For subsequent investigations of ligand-dependent receptor signaling we used MDA-MB-231 cells stably expressing either the BRE-Luc or CAGA-Luc construct.
(§3) MDA-MB-231 cells stably expressing BRE-Luc or CAGA-Luc were generously provided by Caroline Hill (Francis Crick Institute). […] LUC activity was measured using the Promega Dual LUC Reporter Assay system and percentage activity determined compared with cells treated with growth factor and no inhibitor. Growth factors (Peprotech) were used at the following concentrations: 500 ng/mL BMP2, 10 ng/mL BMP4, 500 ng/mL BMP6, 500 ng/mL BMP7, 4 ng/mL TGF-β, and 200 ng/mL activin A. Experiments were repeated at least 3 times and plotted as mean ± SD.

BMP2 signaling = experiment: cells; conditions: Homo sapiens, MDA-MB-231
Method: as §1, §2, §3

BMP4 signaling = experiment: cells; conditions: Homo sapiens, MDA-MB-231
Method: as §1, §2, §3

BMP6 signaling = experiment: cells; conditions: Homo sapiens, MDA-MB-231
Method: as §1, §2, §3

BMP7 signaling = experiment: cells; conditions: Homo sapiens, MDA-MB-231
Method: as §1, §2, §3

[4] = target: T2, recombinant ALK1 kinase domain (Homo sapiens, UniProt P37023); experiment: LANCE Ultra TR-FRET kinase assay, ALK1; type: biochemical; conditions: 10 nM kinase, 50 μM peptide substrate, 10 μM ATP
T2 construct: purified recombinant ALK1-6 kinase domains; purchased Life Technology PV4883
T2 sequence (P37023 202-492 limits assumed): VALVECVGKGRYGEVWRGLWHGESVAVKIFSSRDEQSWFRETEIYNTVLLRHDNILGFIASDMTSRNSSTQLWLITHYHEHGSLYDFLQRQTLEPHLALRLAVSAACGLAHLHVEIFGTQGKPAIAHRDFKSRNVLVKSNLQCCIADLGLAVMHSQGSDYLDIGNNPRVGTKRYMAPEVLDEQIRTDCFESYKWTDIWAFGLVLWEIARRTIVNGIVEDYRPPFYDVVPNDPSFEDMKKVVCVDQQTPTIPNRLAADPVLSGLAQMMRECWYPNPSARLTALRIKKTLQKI
From the text: (§4) Data shown are plotted as mean ± SD. (n = 3 independent replicates). […] (n = 3 replicates). […] Data shown are plotted as mean ± SD. (n ≥ 3 independent replicates).
(§5) Recombinant ALK1 was obtained from Life Technology (catalog PV4883). Recombinant ALK2 to ALK6 were purchased from Carna Bioscience (catalog 09-134). A LANCE Ultra TR-FRET kinase assay was used for measurements of enzyme activities that included a ULight-labeled (Thr-1342) peptide substrate (catalog TRF0130-M, PerkinElmer) and a Europium-labeled anti-phospho peptide antibody (catalog TRF0218-M). The kinase reaction was carried out in a buffer containing 10 mM MgCl2, 3 mM MnCl2, 0.005% Tween-20, 2 mM DTT, and 50 mM HEPES, pH 7.0. The details of the enzyme assays will be reported in a separate paper (our unpublished observations). Briefly, 2.5 μL/well kinase protein (10 nM final) was dispensed to a white solid 1536-well plate followed by addition of 23 nL/well compound diluted in DMSO using a Pin-tool station (Wako-Kalypsis). After a 10-minute incubation at room temperature, 2.5 μL/well substrate solution (50 μM peptide and 10 μM ATP, final) was added, and the assay plate was incubated for 60 minutes at room temperature. […] The signals of time-resolved fluorescence resonance energy transfer (TR-FRET) assay were measured in an Envision plate reader (PerkinElmer) with a TR-FRET mode (Ex = 320, Em1 = 665, and Em2 = 615 nm).

[5] = target: T3, recombinant ALK3 kinase domain (Homo sapiens, UniProt P36894); experiment: LANCE Ultra TR-FRET kinase assay, ALK3; type: biochemical; conditions: 10 nM kinase, 50 μM peptide substrate, 10 μM ATP
T3 construct: purified recombinant ALK1-6 kinase domains; purchased Carna Bioscience 09-134
T3 sequence (P36894 234-525 limits assumed): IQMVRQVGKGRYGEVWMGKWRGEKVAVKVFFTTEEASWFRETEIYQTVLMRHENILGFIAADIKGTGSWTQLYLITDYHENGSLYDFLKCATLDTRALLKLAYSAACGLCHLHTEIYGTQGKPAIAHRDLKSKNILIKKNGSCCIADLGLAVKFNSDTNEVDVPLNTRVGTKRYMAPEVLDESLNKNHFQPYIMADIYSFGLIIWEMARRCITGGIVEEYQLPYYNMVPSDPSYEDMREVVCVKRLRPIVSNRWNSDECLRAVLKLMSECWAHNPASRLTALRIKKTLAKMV
From the text: as §4, §5

[6] = target: T4, recombinant ALK6 kinase domain (Homo sapiens, UniProt O00238); experiment: LANCE Ultra TR-FRET kinase assay, ALK6; type: biochemical; conditions: 10 nM kinase, 50 μM peptide substrate, 10 μM ATP
T4 construct: purified recombinant ALK1-6 kinase domains; purchased Carna Bioscience 09-134
T4 sequence (O00238 204-494 limits assumed): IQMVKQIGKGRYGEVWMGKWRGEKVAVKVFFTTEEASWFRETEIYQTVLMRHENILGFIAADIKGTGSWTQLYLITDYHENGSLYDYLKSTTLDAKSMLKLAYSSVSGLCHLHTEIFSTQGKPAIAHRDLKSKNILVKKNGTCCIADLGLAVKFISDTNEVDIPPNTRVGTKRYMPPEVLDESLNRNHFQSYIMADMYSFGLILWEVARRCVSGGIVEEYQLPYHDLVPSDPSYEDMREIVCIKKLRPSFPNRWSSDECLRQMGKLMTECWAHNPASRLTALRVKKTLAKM
From the text: as §4, §5

HEK293 cells = conditions: human
Method: (§6) Inhibition of the BMP receptors caALK1, caALK2, and caALK3 was assessed via the activity of a BMP-response element LUC reporter (BRE-Luc) stably expressed in the C2C12 cell line, whereas the activin (caALK4) and TGF-β (caALK5) receptors were profiled via a CAGA-Luc reporter construct stably expressed in HEK293 cells (Figure 2B). […] Cell viability was assayed with an MTT (3-[4,5-dimethylthiazol-2-yl]-2,5-diphenyl tetrazolium bromide) colorimetric assay (Promega) per the manufacturer’s instructions.
(§7) lines was determined using the MTT cell viability assay . Data were plotted as mean + S.E.M. and
(§8) (1 picture or pasted object on this page, not shown here)

C2C12 cells = conditions: mouse
Method: as §6, §7, §8

[7] = test system: BMP7-induced phosphorylation of SMAD1/5; experiment: Western blot, BMP7-induced phospho-SMAD1/5 in C2C12 cells; conditions: 100 nM saracatinib
[8] = test system: TGF-β–dependent phosphorylation of SMAD2; conditions: C2C12 cells; Western blot
LYN = LYN (Homo sapiens, UniProt P07948); experiment: Caliper kinase profiling (Nanosyn), LYN; type: biochemical
Chain of LYN (P07948 whole entry, the tested form may be a part): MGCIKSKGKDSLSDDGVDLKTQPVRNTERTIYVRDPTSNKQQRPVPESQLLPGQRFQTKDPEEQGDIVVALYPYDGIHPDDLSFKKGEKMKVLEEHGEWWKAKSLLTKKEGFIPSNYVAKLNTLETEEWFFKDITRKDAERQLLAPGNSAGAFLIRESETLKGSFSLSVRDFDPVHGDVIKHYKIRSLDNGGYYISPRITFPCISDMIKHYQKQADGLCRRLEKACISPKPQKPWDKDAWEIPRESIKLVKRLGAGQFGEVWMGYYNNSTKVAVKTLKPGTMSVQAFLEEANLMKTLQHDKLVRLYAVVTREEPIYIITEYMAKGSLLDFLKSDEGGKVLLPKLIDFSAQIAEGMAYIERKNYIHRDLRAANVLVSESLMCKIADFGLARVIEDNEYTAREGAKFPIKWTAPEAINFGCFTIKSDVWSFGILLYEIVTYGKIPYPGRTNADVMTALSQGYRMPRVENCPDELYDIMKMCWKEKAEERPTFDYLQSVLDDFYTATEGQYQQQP

[9] = target: T5, recombinant ALK5 kinase domain (Homo sapiens, UniProt P36897); experiment: LANCE Ultra TR-FRET kinase assay, ALK5; type: biochemical; conditions: 10 nM kinase, 50 μM peptide substrate, 10 μM ATP
T5 construct: purified recombinant ALK1-6 kinase domains; purchased Carna Bioscience 09-134
T5 sequence (P36897 205-495 limits assumed): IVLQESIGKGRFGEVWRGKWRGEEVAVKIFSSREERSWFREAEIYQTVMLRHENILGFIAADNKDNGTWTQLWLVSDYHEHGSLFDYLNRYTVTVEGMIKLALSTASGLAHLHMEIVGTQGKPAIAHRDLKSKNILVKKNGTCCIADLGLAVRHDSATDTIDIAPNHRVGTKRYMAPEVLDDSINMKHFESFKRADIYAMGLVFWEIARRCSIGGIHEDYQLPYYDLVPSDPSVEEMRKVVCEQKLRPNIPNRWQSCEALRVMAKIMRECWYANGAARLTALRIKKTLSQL

[10] = cited from earlier work
RIPK2 = RIPK2 (Homo sapiens, UniProt O43353); experiment: Caliper kinase profiling (Nanosyn), RIPK2; type: biochemical
Chain of RIPK2 (O43353 whole entry): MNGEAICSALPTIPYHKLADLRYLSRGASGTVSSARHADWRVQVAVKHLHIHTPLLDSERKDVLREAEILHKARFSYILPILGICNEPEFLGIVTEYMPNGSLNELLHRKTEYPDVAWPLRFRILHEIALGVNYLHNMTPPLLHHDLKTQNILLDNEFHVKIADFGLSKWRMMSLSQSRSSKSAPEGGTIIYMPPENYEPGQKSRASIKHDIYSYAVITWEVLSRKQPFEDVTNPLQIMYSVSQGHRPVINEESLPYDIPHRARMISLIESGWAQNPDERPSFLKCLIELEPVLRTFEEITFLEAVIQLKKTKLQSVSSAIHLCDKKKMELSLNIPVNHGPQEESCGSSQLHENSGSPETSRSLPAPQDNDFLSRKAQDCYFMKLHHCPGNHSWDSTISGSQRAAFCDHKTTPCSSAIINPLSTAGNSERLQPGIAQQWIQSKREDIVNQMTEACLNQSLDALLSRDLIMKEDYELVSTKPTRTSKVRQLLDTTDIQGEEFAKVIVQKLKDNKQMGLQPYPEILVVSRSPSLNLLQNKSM

Chain of ALK2 (WT) GS and kinase domain (Q04771 172-499): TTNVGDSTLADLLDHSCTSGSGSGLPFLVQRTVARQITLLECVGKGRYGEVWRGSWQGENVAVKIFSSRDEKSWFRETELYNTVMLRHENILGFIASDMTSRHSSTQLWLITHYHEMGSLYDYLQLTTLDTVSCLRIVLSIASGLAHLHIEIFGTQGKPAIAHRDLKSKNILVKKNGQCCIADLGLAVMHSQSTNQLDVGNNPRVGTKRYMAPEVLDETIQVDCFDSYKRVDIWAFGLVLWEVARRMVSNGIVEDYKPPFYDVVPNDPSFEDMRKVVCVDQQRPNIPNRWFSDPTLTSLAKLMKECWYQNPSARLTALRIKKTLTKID

- ΔTm (thermal shift) ([1]; ALK2 WT, 2 μM protein, 12.5 μM compound): 10.7 °C
SMILES: COc1cc(N2CCC(N3CCN(C)CC3)CC2)ccc1Nc1ncnc(Nc2ccccc2S(=O)(=O)C(C)C)n1 [ASP3026]

SMILES: c1ccc2c(-c3cnn4cc(-c5ccc(N6CCNCC6)cc5)cnc34)ccnc2c1 [LDN-193189]
- mobility (passive range of motion) [2]: almost entirely preserved

SMILES: c1cc(-c2cnn3cc(-c4ccc(N5CCNCC5)cc4)cnc23)c2cccnc2c1 [LDN-212854]
- weight loss relative to vehicle-treated animals ([2]; 6 mg/kg i.p. twice daily): 10%–25%
- mobility (passive range of motion) [2]: almost entirely preserved

SMILES: CN1CCN(CCOc2cc(OC3CCOCC3)c3c(Nc4c(Cl)ccc5c4OCO5)ncnc3c2)CC1 [saracatinib]
- inhibition at 0.1 µM (HCK): > 50%
- inhibition at 0.1 µM (ARG (ABL2)): > 50%
- cyclopia or mesoderm specification phenotypes (zebrafish embryos): no evidence of cyclopia or phenotypes suggesting inhibition of mesoderm specification
- dorsalization phenotype (zebrafish embryos): dorsalized phenotype that increased in severity in a dose-dependent manner
- IC50 [3]: 3900 nM
- IC50 (TGF-β signaling): 305 nM
- inhibition at 0.1 µM (TNIK): > 50%
- IC50 (activin A signaling): 72 nM
- IC50 (BMP2 signaling): 61 nM
- IC50 (BMP4 signaling): 131 nM
- IC50 (BMP6 signaling): 8.9 nM
- IC50 (BMP7 signaling): 5.5 nM
- IC50 [4]: 19 nM
- IC50 [5]: 621 nM
- IC50 [6]: 6130 nM
- concentration up to which well tolerated (HEK293 cells): approximately 40 μM
- concentration up to which well tolerated (C2C12 cells): approximately 40 μM
- BMP7-induced phosphorylation of SMAD1/5 [7]: completely inhibited
- inhibitor concentration at which TGF-β–dependent phosphorylation of SMAD2 was blocked [8]: 5 µM
- inhibition at 0.1 µM (LYN): > 50%
- IC50 [9]: 6890 nM
- t1/2 [10]: approximately 40 hours
- primary side effect ([10]; doses up to 125 mg daily for 9–12 months, phase II): gastrointestinal discomfort
- daily dose up to which safe ([10]; healthy volunteers): ≤ 250 mg
- adverse effects associated with higher doses ([10]; previous oncology trials, higher doses): neutropenia and thrombocytopenia
- inhibition at 0.1 µM (RIPK2): > 50%

SMILES: COc1cc2c(Nc3ccc(Br)cc3F)ncnc2cc1OCC1CCN(C)CC1 [vandetanib]
- binding to ALK2 (in words) ([1]; Supplemental Figure 1C): does not show any notable binding to ALK2
- HO formation / range of motion ([2]; 25 mg/kg i.p. twice daily for 28 days): no evidence of improvement in radiographic HO or range-of motion; also recorded: did not block HO formation
